Legend:
[1] = molecular target: T1, Protein Tyrosine Phosphatase 1B (PTP1B), human truncated form (1-321) (Homo sapiens, UniProt P18031); assay: Inhibition of PTP1B, 10-dose IC50 mode, fluorescence readout of enzyme activity; assay type: biochemical; conditions: for HILLSLOPE: 10-dose curve
T1 construct: The enzyme was the human truncated form (1-321), recombinantly produced in E. coli; host or cells: E. coli
T1 sequence (P18031 1-321): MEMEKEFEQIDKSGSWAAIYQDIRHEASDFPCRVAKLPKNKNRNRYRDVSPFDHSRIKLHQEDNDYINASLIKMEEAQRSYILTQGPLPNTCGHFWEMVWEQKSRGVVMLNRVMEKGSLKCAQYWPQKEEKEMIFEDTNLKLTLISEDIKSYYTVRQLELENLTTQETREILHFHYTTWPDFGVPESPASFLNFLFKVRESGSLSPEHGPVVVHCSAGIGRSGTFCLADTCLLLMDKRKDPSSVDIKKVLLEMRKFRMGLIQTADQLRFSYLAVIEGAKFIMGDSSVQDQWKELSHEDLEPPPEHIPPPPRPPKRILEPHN
Protocol: The enzyme was the human truncated form (1-321), recombinantly produced in E. coli. Fluorescence was measured to monitor enzyme activity.

[2] = Pharmacological activity in mice as weight loss agent; assay type: in vivo
Text: Food was provided ad lib.

mouse models of PD = conditions: several mouse models of PD; cited from earlier work
C. elegans model of PD = conditions: cited from earlier work
[3] = Phase 2 trial of oral squalamine (ENT-01): pharmacokinetics; assay type: in vivo, human; conditions: patients of Example 8
Protocol: PK data were collected on the 10 patients enrolled in Stage 1 and 10 patients enrolled in Stage 2 to determine the extent of systemic absorption. In Stage 1, PK data were obtained at each visit, pre-medication, at 1, 2, 4, 8 and 24 hours (Table 9). In Stage 2, PK was measured on days 1 and 6 of the randomization period pre-medication, at 1, 2, 4 and 8 hours (Table 10).
The mean Cmax, Tmax and T1/2 and AUC of the squalamine ion following squalamine (ENT-01) oral dosing for Stage 1 patients. The PK analyses are only approximate, as the lower limit of the validated concentration range was 10 ng/ml; most of the measured concentrations fell below that value. The mean Cmax, Tmax and T1/2 and AUC of the squalamine ion following squalamine (ENT-01) oral dosing for Stage 2 patients. The PK analyses are only approximate, as the lower limit of the validated concentration range was 0.5 ng/ml.

[4] = single and repeat intravenous administration, dilactate salt, alone or in combination; cited from earlier work
[5] = as the dilactate salt; cited from earlier work
[6] = i.p. 10 mg/kg on days 0, 2, 4, 6, 8 and 10, N=3

SMILES | HILLSLOPE [1] | % Activity ([1]; Conc 1.00E−04 M) [%] | Slope (signal/min) ([1]; Conc 1.00E−04 M) | % Activity ([1]; Conc 1.11E−05 M) [%] | Slope (signal/min) ([1]; Conc 1.11E−05 M) | Slope (signal/min) ([1]; Conc 1.23E−06 M) | Slope (signal/min) ([1]; Conc 1.37E−07 M) | Slope (signal/min) ([1]; Conc 1.52E−08 M) | Slope (signal/min) ([1]; Conc 3.33E−05 M) | Slope (signal/min) ([1]; Conc 3.70E−06 M) | Slope (signal/min) ([1]; Conc 4.12E−07 M) | Slope (signal/min) ([1]; Conc 4.57E−08 M) | Slope (signal/min) ([1]; Conc 5.08E−09 M) | other results
[2H]C([2H])([2H])C([2H])(C(CC[C@@H](C)[C@H]1CCC2C3C(CC[C@@]21C)[C@@]1(C)CC[C@H](NCCCNCCCCNCCCN)C[C@@H]1C[C@H]3O)OS(=O)(=O)O)C([2H])([2H])[2H] (some centres unmarked) [Compound D7-1436] | −2.50 | −0.37 | −161 | −0.74 | −319 | 34760 | 40150 | 43819 | −362 | 8429 | 41755 | 43697 | 44655 | % Activity ([1]; Conc 1.23E−06 M): 80.63%; % Activity ([1]; Conc 1.37E−07 M): 93.14%; % Activity ([1]; Conc 1.52E−08 M): 101.65%; % Activity ([1]; Conc 3.33E−05 M): −0.84%; % Activity ([1]; Conc 3.70E−06 M): 19.55%; % Activity ([1]; Conc 4.12E−07 M): 96.86%; % Activity ([1]; Conc 4.57E−08 M): 101.36%; % Activity ([1]; Conc 5.08E−09 M): 103.59%; body weight reached ([2]; i.p. 10 mg/kg on days 0, 2, 4, 6, 8 and 10, by day 16, N=3): about 45 % of the starting weight; condition of the animals ([2]; i.p. 10 mg/kg on days 0, 2, 4, 6, 8 and 10, day 16): appeared moribund and were euthanized; potency as compared with MSI-1436 ([2]; weight loss, i.p. 10 mg/kg): increased potency
CC(C)[C@@H](CC[C@@H](C)C1CCC2C3C(CC[C@@]21C)[C@@]1(C)CC[C@H](NCCCNCCCCNCCCN)C[C@@H]1C[C@H]3O)OS(=O)(=O)O (some centres unmarked) [MSI-1436, reference compound] | −2.19 | −0.16 | −68 | 0.68 | 292 | 37260 | 40137 | 44021 | −440 | 16431 | 39959 | 42717 | 43513 | nadir in weight [2, 6]: ~16 days; recovery to starting weight [2, 6]: 45 days
CC(C)[C@@H](CC[C@@H](C)C1CCC2C3C(CC[C@@]21C)[C@@]1(C)CC[C@H](NCCCNCCCCN)C[C@@H]1C[C@H]3O)OS(=O)(=O)O (stereo partly drawn) [squalamine, 3 beta-N-1-(N-[3-(4-aminobutyl)]-1,3-diaminopropane)-7 alpha,24 zeta-dihydroxy-5 alpha-cholestane 24-sulfate] |  |  |  |  |  |  |  |  |  |  |  |  |  | gastrointestinal dysmotility (mouse models of PD): reverse gastrointestinal dysmotility; muscle paralysis (C. elegans model of PD): complete reversal; systemic absorption following oral administration [3]: not significantly absorbed; well tolerated dose [4]: at least 300 mg/m^2; water solubility [5]: highly water soluble

From patent US20200262864A1, “DEUTERATED FORMS OF AMINOSTEROLS AND METHODS OF USING THE SAME” (Enterin, Inc., priority 2019, published 2020)
